Assay results from PMC7604503, “Cyclic peptides can engage a single binding pocket through highly divergent modes” (Proceedings of the National Academy of Sciences of the …, 2020).
Where a SMILES comes first, the peptide text is derived from it. Bridges are numbered along the chain shown (N, C = ends).

How the values were obtained:
Assay in all cases: BROMOscan competition binding assay (BromoMAX, Eurofins DiscoverX)
[1] = target: T1, ATAD2B (Homo sapiens, UniProt Q9ULI0); details: for Percent Control ATAD2B: compound concentration 1000 nM, lower percentage control = stronger affinity
T1 construct: purchased Eurofins DiscoverX (BROMOscan, BromoMAX)
T1 sequence (Q9ULI0 1-1458): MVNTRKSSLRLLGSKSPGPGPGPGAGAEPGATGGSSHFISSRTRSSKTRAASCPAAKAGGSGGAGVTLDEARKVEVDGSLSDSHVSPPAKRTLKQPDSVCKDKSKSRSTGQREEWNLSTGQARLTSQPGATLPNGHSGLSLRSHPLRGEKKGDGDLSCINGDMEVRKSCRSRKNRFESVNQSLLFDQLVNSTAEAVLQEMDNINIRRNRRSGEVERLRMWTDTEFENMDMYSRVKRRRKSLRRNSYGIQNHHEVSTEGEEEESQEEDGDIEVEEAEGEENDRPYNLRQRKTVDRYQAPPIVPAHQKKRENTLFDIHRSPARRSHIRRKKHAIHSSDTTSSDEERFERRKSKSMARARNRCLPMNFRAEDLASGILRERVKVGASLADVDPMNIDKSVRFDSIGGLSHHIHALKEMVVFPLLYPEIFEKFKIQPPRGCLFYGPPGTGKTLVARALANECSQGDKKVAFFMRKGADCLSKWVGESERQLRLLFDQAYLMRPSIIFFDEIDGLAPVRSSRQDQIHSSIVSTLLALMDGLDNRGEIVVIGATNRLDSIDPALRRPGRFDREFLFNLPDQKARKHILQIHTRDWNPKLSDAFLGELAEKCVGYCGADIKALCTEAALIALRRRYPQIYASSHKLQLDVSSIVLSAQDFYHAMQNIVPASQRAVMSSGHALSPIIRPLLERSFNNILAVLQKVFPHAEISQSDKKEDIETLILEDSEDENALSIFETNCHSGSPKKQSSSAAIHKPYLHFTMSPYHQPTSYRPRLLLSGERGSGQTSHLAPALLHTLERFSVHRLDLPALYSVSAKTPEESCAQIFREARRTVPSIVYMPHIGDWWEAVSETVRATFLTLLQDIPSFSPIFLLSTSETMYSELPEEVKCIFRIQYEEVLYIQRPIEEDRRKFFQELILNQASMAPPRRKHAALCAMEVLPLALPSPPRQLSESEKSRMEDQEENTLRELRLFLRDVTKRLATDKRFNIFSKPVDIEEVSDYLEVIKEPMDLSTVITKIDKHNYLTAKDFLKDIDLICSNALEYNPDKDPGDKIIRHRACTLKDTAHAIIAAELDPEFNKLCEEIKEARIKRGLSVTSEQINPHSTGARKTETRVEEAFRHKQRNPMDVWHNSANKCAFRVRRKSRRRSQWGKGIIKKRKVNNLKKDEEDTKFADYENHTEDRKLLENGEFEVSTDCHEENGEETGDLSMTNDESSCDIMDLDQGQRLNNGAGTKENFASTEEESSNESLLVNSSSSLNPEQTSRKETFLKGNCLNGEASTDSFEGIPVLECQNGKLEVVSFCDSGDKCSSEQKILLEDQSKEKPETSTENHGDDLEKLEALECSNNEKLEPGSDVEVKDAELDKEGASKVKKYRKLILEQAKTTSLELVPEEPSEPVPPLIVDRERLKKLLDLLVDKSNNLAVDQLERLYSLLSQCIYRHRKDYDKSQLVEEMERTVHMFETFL

[2] = target: T2, BRD1 (Homo sapiens, UniProt O95696); details: for Percent Control BRD1: compound concentration 1000 nM, lower percentage control = stronger affinity
T2 construct: purchased Eurofins DiscoverX (BROMOscan, BromoMAX)
T2 sequence (O95696 1-1058): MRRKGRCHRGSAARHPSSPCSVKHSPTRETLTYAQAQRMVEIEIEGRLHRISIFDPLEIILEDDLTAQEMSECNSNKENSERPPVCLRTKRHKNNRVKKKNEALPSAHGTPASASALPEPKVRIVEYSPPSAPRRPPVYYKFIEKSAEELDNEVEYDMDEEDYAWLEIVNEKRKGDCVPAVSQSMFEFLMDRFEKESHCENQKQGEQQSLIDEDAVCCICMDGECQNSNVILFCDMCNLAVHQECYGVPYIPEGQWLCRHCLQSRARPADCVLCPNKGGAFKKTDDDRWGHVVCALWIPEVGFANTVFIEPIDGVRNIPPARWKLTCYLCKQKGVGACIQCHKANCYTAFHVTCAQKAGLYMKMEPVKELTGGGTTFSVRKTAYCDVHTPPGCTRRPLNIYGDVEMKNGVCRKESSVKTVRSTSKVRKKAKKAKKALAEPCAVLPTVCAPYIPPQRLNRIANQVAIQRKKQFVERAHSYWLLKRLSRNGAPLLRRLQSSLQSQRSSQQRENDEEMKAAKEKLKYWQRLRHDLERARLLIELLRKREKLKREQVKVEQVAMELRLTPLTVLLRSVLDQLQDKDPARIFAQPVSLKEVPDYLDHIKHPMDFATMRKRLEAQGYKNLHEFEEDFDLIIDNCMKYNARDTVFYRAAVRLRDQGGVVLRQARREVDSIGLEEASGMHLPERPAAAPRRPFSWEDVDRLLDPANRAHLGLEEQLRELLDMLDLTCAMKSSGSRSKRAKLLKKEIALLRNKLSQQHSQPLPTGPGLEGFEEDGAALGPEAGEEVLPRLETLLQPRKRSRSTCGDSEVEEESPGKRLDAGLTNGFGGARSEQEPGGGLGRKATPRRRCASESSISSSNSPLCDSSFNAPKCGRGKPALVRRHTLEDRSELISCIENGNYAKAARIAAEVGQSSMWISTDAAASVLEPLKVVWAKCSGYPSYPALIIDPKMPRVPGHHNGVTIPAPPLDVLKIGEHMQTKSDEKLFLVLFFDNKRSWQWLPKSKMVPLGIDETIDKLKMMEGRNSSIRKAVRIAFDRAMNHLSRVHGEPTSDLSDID

[3] = target: T3, BRDT(1) (Homo sapiens, UniProt Q58F21); details: for Percent Control BRDT(1): compound concentration 1000 nM, lower percentage control = stronger affinity
T3 construct: BRDT(1); purchased Eurofins DiscoverX (BROMOscan, BromoMAX)

[4] = target: T4, GCN5L2 (Homo sapiens, UniProt Q92830); details: for Percent Control GCN5L2: compound concentration 1000 nM, lower percentage control = stronger affinity
T4 construct: purchased Eurofins DiscoverX (BROMOscan, BromoMAX)

[5] = target: T5, TAF1(2) (Homo sapiens, UniProt P21675); details: for Percent Control TAF1(2): compound concentration 1000 nM, lower percentage control = stronger affinity
T5 construct: TAF1(2); purchased Eurofins DiscoverX (BROMOscan, BromoMAX)
T5 sequence (P21675 1521-1656 limits assumed): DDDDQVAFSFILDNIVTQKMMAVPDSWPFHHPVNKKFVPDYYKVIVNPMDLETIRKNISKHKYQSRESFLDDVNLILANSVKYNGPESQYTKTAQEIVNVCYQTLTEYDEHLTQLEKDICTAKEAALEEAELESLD

[6] = target: T6, BRD4(2) (Homo sapiens, UniProt O60885); details: for Percent Control BRD4(2): compound concentration 1000 nM, lower percentage control = stronger affinity
T6 construct: BRD4(2); purchased Eurofins DiscoverX (BROMOscan, BromoMAX)

T4 sequence (Q92830 whole entry): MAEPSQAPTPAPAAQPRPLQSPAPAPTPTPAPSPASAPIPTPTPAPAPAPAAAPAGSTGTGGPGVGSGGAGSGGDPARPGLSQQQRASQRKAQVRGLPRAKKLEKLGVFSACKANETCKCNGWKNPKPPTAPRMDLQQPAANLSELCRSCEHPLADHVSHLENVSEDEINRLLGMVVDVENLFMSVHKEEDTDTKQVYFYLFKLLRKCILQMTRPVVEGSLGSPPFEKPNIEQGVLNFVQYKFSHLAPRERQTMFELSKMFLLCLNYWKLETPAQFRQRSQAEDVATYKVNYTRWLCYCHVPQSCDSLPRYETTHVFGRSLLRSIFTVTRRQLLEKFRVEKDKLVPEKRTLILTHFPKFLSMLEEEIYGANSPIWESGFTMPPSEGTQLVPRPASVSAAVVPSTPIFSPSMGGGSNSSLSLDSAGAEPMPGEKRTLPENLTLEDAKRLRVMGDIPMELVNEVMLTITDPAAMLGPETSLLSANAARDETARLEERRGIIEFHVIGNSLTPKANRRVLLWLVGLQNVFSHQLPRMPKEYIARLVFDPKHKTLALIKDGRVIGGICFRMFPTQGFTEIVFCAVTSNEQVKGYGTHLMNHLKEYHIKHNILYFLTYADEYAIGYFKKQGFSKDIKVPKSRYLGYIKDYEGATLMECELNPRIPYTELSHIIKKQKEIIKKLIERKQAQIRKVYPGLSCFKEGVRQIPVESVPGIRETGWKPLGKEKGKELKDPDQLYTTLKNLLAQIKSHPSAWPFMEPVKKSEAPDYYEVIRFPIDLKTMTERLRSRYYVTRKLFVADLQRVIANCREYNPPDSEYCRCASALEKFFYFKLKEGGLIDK

Structure (SMILES)	Percent Control ATAD2B [1] [%]	Percent Control BRD1 [2] [%]	Percent Control BRDT(1) [3] [%]	Percent Control GCN5L2 [4] [%]	Percent Control TAF1(2) [5] [%]	Percent Control BRD4(2) [6] [%]	percent of control binding at 1 µM [1] [%]	percent of control binding at 1 µM [2] [%]	remaining binding at 1 µM ([3]; read-out: Percent Control BRDT(1)) [%]	percent of control binding at 1 µM [4] [%]	percent of control binding at 1 µM [5] [%]	remaining binding at 1 µM ([6]; read-out: Percent Control BRD4(2)) [%]
CC[C@H](C)[C@@H]1NC(=O)[C@H]([C@@H](C)O)NC(=O)[C@H](CCCCN)NC(=O)[C@H](Cc2c[nH]c3ccccc23)NC(=O)CSC[C@@H](C(N)=O)NC(=O)[C@H](CCC(N)=O)NC(=O)[C@H](CCCCNC(C)=O)NC(=O)[C@H]([C@@H](C)O)NC(=O)[C@H](CCCNC(=N)N)NC(=O)[C@H](Cc2c[nH]c3ccccc23)NC(=O)[C@H]([C@@H](C)O)NC(=O)[C@H](CCCCNC(C)=O)NC(=O)CNC(=O)[C@H](CCCCNC(C)=O)NC1=O [3.1B] ({CH2CO}-WKTIK(Ac)GK(Ac)TWRTK(Ac)QC-NH2; thioether N-14)	100	100	0	100	82	99	–	–	–	–	–	–
CC[C@H](C)[C@H](NC(=O)[C@H](CCCNC(=N)N)NC(=O)[C@H](CCCCNC(C)=O)NC(=O)[C@H](CCCNC(=N)N)NC(=O)[C@H](CC(C)C)NC(=O)[C@@H]1CSCC(=O)N[C@@H](Cc2c[nH]c3ccccc23)C(=O)N[C@@H](CCCCNC(C)=O)C(=O)NCC(=O)N[C@@H](Cc2ccc(O)cc2)C(=O)N[C@@H](CC(C)C)C(=O)N1)C(=O)N[C@@H](CCC(N)=O)C(=O)N[C@@H](CCCNC(=N)N)C(=O)N[C@H](C(=O)N[C@@H](Cc1ccc(O)cc1)C(=O)N[C@@H](CC(N)=O)C(N)=O)[C@@H](C)O [4.2C] ({CH2CO}-WK(Ac)GYLCLRK(Ac)RIQRTYN-NH2; thioether N-6)	–	–	–	–	–	–	100	84	85	96	67	24
CC[C@H](C)[C@@H]1NC(=O)[C@H](Cc2c[nH]c3ccccc23)NC(=O)[C@H](Cc2c[nH]c3ccccc23)NC(=O)CSC[C@@H](C(N)=O)NC(=O)CNC(=O)[C@H](CCCCNC(C)=O)NC(=O)[C@H](CCCCN)NC(=O)[C@H](C(C)C)NC(=O)[C@H](CCCCNC(C)=O)NC(=O)[C@@H]2CCCN2C(=O)[C@H]([C@@H](C)CC)NC1=O [3.1C] ({CH2CO}-WWIIPK(Ac)VKK(Ac)GC-NH2; thioether N-11)	100	97	0	100	79	13	–	–	–	–	–	–
